Reference: PubChem BioAssay (NCI)
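Protocol summary: plate cells (96-well), add compound at 5 concentrations, incubate 48 h, interpolate endpoints linearly. Here, GI50 denotes the concentration required for 50% inhibition of growth. The concentration for full growth arrest is given as TGI.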

Legend:
Experiment in all cases: NCI-60 cell line screen, 48 h
HCT-15 colon = system: HCT-15 colon
KM12 colon = system: KM12 colon
LOX IMVI melanoma = system: LOX IMVI melanoma
MALME-3M melanoma = system: MALME-3M melanoma
NCI-H226 lung = system: NCI-H226 lung
SF-268 CNS = system: SF-268 CNS
SF-295 CNS = system: SF-295 CNS
SNB-75 CNS = system: SNB-75 CNS
U251 CNS = system: U251 CNS
UO-31 renal = system: UO-31 renal

Compound `Nc1nc(=S)[nH]c(C(=O)Nc2nccs2)c1-c1ccccc1` has a TGI (HCT-15 colon) of over 100 µM, a TGI (KM12 colon) of over 100 µM and a TGI (LOX IMVI melanoma) of over 100 µM. For the same compound, the TGI (MALME-3M melanoma) was over 100 µM, the TGI (NCI-H226 lung) was over 100 µM and the TGI (SF-268 CNS) was over 100 µM. It also gave a TGI (SF-295 CNS) of over 100 µM, a TGI (SNB-75 CNS) of over 100 µM and a TGI (U251 CNS) of over 100 µM. For the same compound, the TGI (UO-31 renal) was over 100 µM.
`Fc1ccc(-c2nn3c(COc4ccc(Cl)cc4)nnc3s2)cc1Oc1ccccc1` was tested, and the GI50 (HCT-15 colon) was over 60.6 µM, the TGI (HCT-15 colon) was over 100 µM and the GI50 (KM12 colon) was 40.8 µM. It also gave a TGI (KM12 colon) of over 100 µM, a GI50 (LOX IMVI melanoma) of over 42.2 µM and a TGI (LOX IMVI melanoma) of over 56.3 µM. For the same compound, the GI50 (MALME-3M melanoma) was 29 µM, the TGI (MALME-3M melanoma) was 67.4 µM and the GI50 (NCI-H226 lung) was 28.7 µM. For the same compound, the TGI (NCI-H226 lung) was 84.4 µM, the GI50 (SF-268 CNS) was 20 µM and the TGI (SF-268 CNS) was 54.1 µM. It also gave a GI50 (SF-295 CNS) of 15.2 µM, a TGI (SF-295 CNS) of 33.5 µM and a GI50 (SNB-75 CNS) of 61 µM. The TGI (SNB-75 CNS) was over 100 µM, the GI50 (U251 CNS) was 25.1 µM and the TGI (U251 CNS) was over 53.5 µM. For the same compound, the GI50 (UO-31 renal) was 24.4 µM and the TGI (UO-31 renal) was over 100 µM.
Compound `COC(=O)[C@H](Cc1cn(C)cn1)NC(=O)[C@@H](NC(=O)Nc1cc(C(F)(F)F)cc(C(F)(F)F)c1)C(C)C` has a GI50 (HCT-15 colon) of over 10 µM, a TGI (HCT-15 colon) of over 10 µM and a GI50 (KM12 colon) of 1.98 µM. The TGI (KM12 colon) was 4.22 µM, the GI50 (LOX IMVI melanoma) was 1.74 µM and the TGI (LOX IMVI melanoma) was 3.4 µM. It also gave a GI50 (MALME-3M melanoma) of over 10 µM, a TGI (MALME-3M melanoma) of over 10 µM and a GI50 (NCI-H226 lung) of over 10 µM. It also gave a TGI (NCI-H226 lung) of over 10 µM, a GI50 (SF-268 CNS) of 2.02 µM and a TGI (SF-268 CNS) of 4.87 µM. For the same compound, the GI50 (SF-295 CNS) was over 10 µM, the TGI (SF-295 CNS) was over 10 µM and the GI50 (SNB-75 CNS) was 6.44 µM. It also gave a TGI (SNB-75 CNS) of over 10 µM, a GI50 (U251 CNS) of over 10 µM and a TGI (U251 CNS) of over 10 µM. It also gave a GI50 (UO-31 renal) of over 10 µM and a TGI (UO-31 renal) of over 10 µM.
In the case of `N#CC(NC(=O)CCl)=C(Cl)Cl`, the GI50 (HCT-15 colon) is reported as 0.68 µM, the TGI (HCT-15 colon) is reported as 2.34 µM and the GI50 (KM12 colon) is reported as 1.88 µM. The TGI (KM12 colon) was 4.17 µM, the GI50 (LOX IMVI melanoma) was 1.57 µM and the TGI (LOX IMVI melanoma) was 3.1 µM. The GI50 (MALME-3M melanoma) was 1.49 µM, the TGI (MALME-3M melanoma) was 3.02 µM and the GI50 (NCI-H226 lung) was 2.59 µM. For the same compound, the TGI (NCI-H226 lung) was 6.56 µM, the GI50 (SF-268 CNS) was 1.97 µM and the TGI (SF-268 CNS) was 4.66 µM. For the same compound, the GI50 (SF-295 CNS) was 2.74 µM, the TGI (SF-295 CNS) was 8.01 µM and the GI50 (SNB-75 CNS) was 1.63 µM. For the same compound, the TGI (SNB-75 CNS) was 4.27 µM, the GI50 (U251 CNS) was 1.75 µM and the TGI (U251 CNS) was 3.79 µM. It also gave a GI50 (UO-31 renal) of 1.25 µM and a TGI (UO-31 renal) of 2.56 µM.
`COc1ccc(Cc2nc3cc(OC)c(OC)cc3c(=O)[nH]2)cc1` showed a GI50 (HCT-15 colon) of 3.57 µM, a TGI (HCT-15 colon) of over 100 µM and a GI50 (KM12 colon) of 2.68 µM. It also gave a TGI (KM12 colon) of 10.4 µM, a GI50 (LOX IMVI melanoma) of 10.9 µM and a TGI (LOX IMVI melanoma) of over 100 µM. For the same compound, the GI50 (MALME-3M melanoma) was 9.53 µM, the TGI (MALME-3M melanoma) was 30.3 µM and the GI50 (NCI-H226 lung) was 9.2 µM. For the same compound, the TGI (NCI-H226 lung) was over 100 µM, the GI50 (SF-268 CNS) was 3.52 µM and the TGI (SF-268 CNS) was over 45.6 µM. It also gave a GI50 (SF-295 CNS) of 5.21 µM, a TGI (SF-295 CNS) of over 26.9 µM and a GI50 (SNB-75 CNS) of 9.79 µM. It also gave a TGI (SNB-75 CNS) of 40.1 µM, a GI50 (U251 CNS) of 10.5 µM and a TGI (U251 CNS) of over 100 µM. For the same compound, the GI50 (UO-31 renal) was 4.66 µM and the TGI (UO-31 renal) was over 100 µM.
`O=C(/C=C(\[O-])c1ccccc1)CCCCCCC(=O)/C=C(\[O-])c1ccccc1.O=C(/C=C(\[O-])c1ccccc1)CCCCCCC(=O)/C=C(\[O-])c1ccccc1.O=C(/C=C(\[O-])c1ccccc1)CCCCCCC(=O)/C=C(\[O-])c1ccccc1.[Nd+3].[Nd+3]` gave a GI50 (HCT-15 colon) of over 50 µM, a TGI (HCT-15 colon) of over 50 µM and a GI50 (KM12 colon) of over 50 µM. For the same compound, the TGI (KM12 colon) was over 50 µM, the GI50 (LOX IMVI melanoma) was over 50 µM and the TGI (LOX IMVI melanoma) was over 50 µM. For the same compound, the GI50 (MALME-3M melanoma) was over 50 µM, the TGI (MALME-3M melanoma) was over 50 µM and the GI50 (NCI-H226 lung) was over 50 µM. It also gave a TGI (NCI-H226 lung) of over 50 µM, a GI50 (SF-268 CNS) of over 50 µM and a TGI (SF-268 CNS) of over 50 µM. The GI50 (SF-295 CNS) was 40.2 µM, the TGI (SF-295 CNS) was over 50 µM and the GI50 (SNB-75 CNS) was 3.3 µM. It also gave a TGI (SNB-75 CNS) of over 50 µM, a GI50 (U251 CNS) of over 50 µM and a TGI (U251 CNS) of over 50 µM. For the same compound, the GI50 (UO-31 renal) was over 50 µM and the TGI (UO-31 renal) was over 50 µM.
